Source: patent publication US7592345B2, “Piperazine and [1,4]diazepan derivatives as NK antagonists” (Hoffmann-La Roche Inc., priority 2007, dated 2009)

Biological target: T1, recombinant human NK3 receptor (Homo sapiens, UniProt P29371)
T1 construct: expressed in transfected cells; host or cells: HEK293 cells (transient expression), membranes
T1 sequence (P29371 1-465): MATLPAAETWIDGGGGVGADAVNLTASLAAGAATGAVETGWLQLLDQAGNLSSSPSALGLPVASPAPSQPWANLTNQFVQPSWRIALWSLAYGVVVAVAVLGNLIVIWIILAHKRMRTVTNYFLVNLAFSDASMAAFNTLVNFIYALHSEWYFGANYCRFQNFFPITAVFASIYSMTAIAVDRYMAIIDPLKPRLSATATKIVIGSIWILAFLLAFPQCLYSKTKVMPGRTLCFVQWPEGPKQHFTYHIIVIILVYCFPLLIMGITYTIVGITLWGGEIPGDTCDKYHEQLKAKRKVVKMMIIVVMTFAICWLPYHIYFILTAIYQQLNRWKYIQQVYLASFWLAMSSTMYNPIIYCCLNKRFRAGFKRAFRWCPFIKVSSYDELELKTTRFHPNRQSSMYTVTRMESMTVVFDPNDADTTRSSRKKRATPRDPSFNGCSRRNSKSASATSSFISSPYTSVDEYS
Assay: [3H]SR142801 competition binding assay
Settings: [3H]SR142801, membranes from HEK293 cells transiently expressing recombinant human NK3 receptor; read-out: hNK3 Ki
Procedure: [^3H]SR142801 Competition Binding Assay
hNK3 receptor binding experiment were performed using [^3H]SR142801 (Catalog No. TRK1035, specific activity: 74.0 Ci/mmol, Amersham, GE Healthcare UK limited, Buckinghamshire, UK) and membrane isolated from HEK293 cells transiently expressing recombinant human NK3 receptor. After thawing, the membrane homogenates were centrifuged at 48,000×g for 10 min at 4° C., the pellets were resuspended in the 50 mM Tris-HCl, 4 mM MnCl2, 1 μM phosphoramidon, 0.1% BSA binding buffer at pH 7.4 to a final assay concentration of 5 μg protein/well. For inhibition experiments, membranes were incubated with [^3H]SR142801 at a concentration equal to KD value of radioligand and 10 concentrations of the inhibitory compound (0.0003-10 μM) (in a total reaction volume of 500 μl) for 75 min at room temperature (RT). At the end of the incubation, membranes were filtered onto unitfilter (96-well white microplate with bonded GF/C filter preincubated 1 h in 0.3% PEI+0.3% BSA, Packard BioScience, Meriden, Conn.) with a Filtermate 196 harvester (Packard BioScience) and washed 4 times with ice-cold 50 mM Tris-HCl, pH 7.4 buffer. Nonspecific binding was measured in the presence of 10 μM SB222200 for both radioligands. The radioactivity on the filter was counted (5 min) on a Packard Top-count microplate scintillation counter with quenching correction after addition of 45 μl of microscint 40 (Canberra Packard S. A., Zürich, Switzerland) and shaking for 1 h. Inhibition curves were fitted according to the Hill equation: y=100/(1+(x/IC50)^nH), where nH=slope factor using Excel-fit 4 software (Microsoft). IC50 values were derived from the inhibition curve and the affinity constant (Ki) values were calculated using the Cheng-Prussoff equation Ki=IC50/(1+[L]/KD) where [L] is the concentration of radioligand and KD is its dissociation constant at the receptor, derived from the saturation isotherm. All experiments were performed in duplicate and the mean±standard error (SEM) of the individual Ki values was calculated.

Ki [nM]	SMILES
13.3	C[C@@H]1CN(CCC(C)(C(=O)N(C)Cc2ccc(Cl)c(Cl)c2)c2ccc(Cl)c(Cl)c2)CCN1S(C)(=O)=O (stereo partly drawn) [Example 41, N-(3,4-Dichloro-benzyl)-2-(3,4-dichloro-phenyl)-4-((R)-4-methanesulfonyl-3-methyl-piperazin-1-yl)-2,N-dimethyl-butyramide]
906	C[C@H]1CN(CCC(C)(C(=O)NCc2ccc(C(F)(F)F)nc2)c2ccc(Cl)c(Cl)c2)CCN1S(C)(=O)=O (stereo partly drawn) [Example 91, 2-(3,4-Dichloro-phenyl)-4-((S)-4-methanesulfonyl-3-methyl-piperazin-1-yl)-2-methyl-N-(6-trifluoromethyl-pyridin-3-ylmethyl)-butyramide]
56.2	C[C@@H]1CN(CCC(C)(C(=O)N(C)Cc2cccc(C(F)(F)F)c2)c2ccc(Cl)c(Cl)c2)CCN1S(C)(=O)=O (stereo partly drawn) [Example 58, 2-(3,4-Dichloro-phenyl)-4-((R)-4-methanesulfonyl-3-methyl-piperazin-1-yl)-2,N-dimethyl-N-(3-trifluoromethyl-benzyl)-butyramide]
171	CC(NC(=O)C(C)(CCN1CCN(S(C)(=O)=O)CC1)c1ccc(Cl)c(Cl)c1)c1ccc(Cl)cc1 (stereo not drawn) [Example 14, N-[1-(4-Chloro-phenyl)-ethyl]-2-(3,4-dichloro-phenyl)-4-(4-methanesulfonyl-piperazin-1-yl)-2-methyl-butyramide]
93.4	CN(Cc1ccc(-c2ccncc2)cc1)C(=O)C(C)(CCN1CCCN(S(C)(=O)=O)CC1)c1ccc(Cl)c(Cl)c1 (stereo not drawn) [Example 123, 2-(3,4-Dichloro-phenyl)-4-(4-methanesulfonyl-[1,4]diazepan-1-yl)-2,N-dimethyl-N-(4-pyridin-4-yl-benzyl)-butyramide]
25.8	CC(NC(=O)C(C)(CCN1CCN(S(C)(=O)=O)[C@H](C)C1)c1ccc(Cl)c(Cl)c1)c1ccc(Cl)c(Cl)c1 (stereo partly drawn) [Example 50, 2-(3,4-Dichloro-phenyl)-N-[1-(3,4-dichloro-phenyl)-ethyl]-4-((R)-4-methanesulfonyl-3-methyl-piperazin-1-yl)-2-methyl-butyramide]
133	CC(CCN1CCN(S(C)(=O)=O)CC1)(C(=O)NCc1ccc(Cl)c(F)c1)c1ccc(Cl)c(Cl)c1 (stereo not drawn) [Example 30, N-(4-Chloro-3-fluoro-benzyl)-2-(3,4-dichloro-phenyl)-4-(4-methanesulfonyl-piperazin-1-yl)-2-methyl-butyramide]
65.5	CC(CCN1CCN(S(C)(=O)=O)CC1)(C(=O)NCc1ccc(Cl)c(Cl)c1)c1ccc(Cl)c(Cl)c1 (stereo not drawn) [Example 21, N-(3,4-Dichloro-benzyl)-2-(3,4-dichloro-phenyl)-4-(4-methanesulfonyl-piperazin-1-yl)-2-methyl-butyramide]
266	C[C@H]1CN(CCC(C)(C(=O)N(C)Cc2cccc(F)c2)c2ccc(Cl)c(Cl)c2)CCN1S(C)(=O)=O (stereo partly drawn) [Example 89, 2-(3,4-Dichloro-phenyl)-N-(3-fluoro-benzyl)-4-((S)-4-methanesulfonyl-3-methyl-piperazin-1-yl)-2,N-dimethyl-butyramide]
43.4	CC(NC(=O)C(C)(CCN1CCCN(S(C)(=O)=O)CC1)c1ccc(Cl)c(Cl)c1)c1ccc(Cl)c(Cl)c1 (stereo not drawn) [Example 122, 2-(3,4-Dichloro-phenyl)-N-[1-(3,4-dichloro-phenyl)-ethyl]-4-(4-methanesulfonyl-[1,4]diazepan-1-yl)-2-methyl-butyramide]
611	COc1cccc(CN(C)C(=O)C(C)(CCN2CCN(S(C)(=O)=O)[C@@H](C)C2)c2ccc(Cl)c(Cl)c2)c1 (stereo partly drawn) [Example 78, 2-(3,4-Dichloro-phenyl)-4-((S)-4-methanesulfonyl-3-methyl-piperazin-1-yl)-N-(3-methoxy-benzyl)-2,N-dimethyl-butyramide]
42.9	C[C@H]1CN(CCC(C)(C(=O)NCc2ccc(Cl)c(Cl)c2)c2ccc(Cl)c(Cl)c2)CCN1S(C)(=O)=O (stereo partly drawn) [Example 72, N-(3,4-Dichloro-benzyl)-2-(3,4-dichloro-phenyl)-4-((S)-4-methanesulfonyl-3-methyl-piperazin-1-yl)-2-methyl-butyramide]
19.2	C[C@H]1CN(CCC(C)(C(=O)N(C)Cc2ccc(C(F)(F)F)c(F)c2)c2ccc(Cl)c(Cl)c2)CCN1S(C)(=O)=O (stereo partly drawn) [Example 70, 2-(3,4-Dichloro-phenyl)-N-(3-fluoro-4-trifluoromethyl-benzyl)-4-((S)-4-methanesulfonyl-3-methyl-piperazin-1-yl)-2,N-dimethyl-butyramide]
397	CC(CCN1CCN(S(C)(=O)=O)CC1)(C(=O)N[C@H](CO)c1ccc(F)cc1)c1ccc(Cl)c(Cl)c1 (stereo partly drawn) [Example 133, 2-(3,4-Dichloro-phenyl)-N-[(S)-1-(4-fluoro-phenyl)-2-hydroxy-ethyl]-4-(4-methanesulfonyl-piperazin-1-yl)-2-methyl-butyramide]
288	CC(CCN1CCN(S(C)(=O)=O)CC1)(C(=O)NCc1cccc(C(F)(F)F)c1)c1ccc(Cl)c(Cl)c1 (stereo not drawn) [Example 8, 2-(3,4-Dichloro-phenyl)-4-(4-methanesulfonyl-piperazin-1-yl)-2-methyl-N-(3-trifluoromethyl-benzyl)-butyramide]
108	COc1cccc(CN(C)C(=O)C(C)(CCN2CCCN(S(C)(=O)=O)CC2)c2ccc(Cl)c(Cl)c2)c1 (stereo not drawn) [Example 120, 2-(3,4-Dichloro-phenyl)-4-(4-methanesulfonyl-[1,4]diazepan-1-yl)-N-(3-methoxy-benzyl)-2,N-dimethyl-butyramide]
109	COc1ccc(CN(C)C(=O)C(C)(CCN2CCN(S(C)(=O)=O)[C@H](C)C2)c2ccc(Cl)c(Cl)c2)cc1F (stereo partly drawn) [Example 31, 2-(3,4-Dichloro-phenyl)-N-(3-fluoro-4-methoxy-benzyl)-4-((R)-4-methanesulfonyl-3-methyl-piperazin-1-yl)-2,N-dimethyl-butyramide]
15.4	CC(CCN1CCN2C(CCS2(=O)=O)C1)(C(=O)N[C@@H](CO)c1ccc(Cl)cc1)c1ccc(Cl)c(Cl)c1 (stereo partly drawn) [Example 136, N-[(R)-1-(4-Chloro-phenyl)-2-hydroxy-ethyl]-2-(3,4-dichloro-phenyl)-4-(1,1-dioxo-hexahydro-1λ^6-thia-5,7a-diaza-inden-5-yl)-2-methyl-butyramide]
16.8	C[C@H]1CN(CCC(C)(C(=O)N(C)Cc2ccc(F)c(C(F)(F)F)c2)c2ccc(Cl)c(Cl)c2)CCN1S(C)(=O)=O (stereo partly drawn) [Example 64, 2-(3,4-Dichloro-phenyl)-N-(4-fluoro-3-trifluoromethyl-benzyl)-4-((S)-4-methanesulfonyl-3-methyl-piperazin-1-yl)-2,N-dimethyl-butyramide]
655	CN(Cc1ccccc1Cl)C(=O)C(CCN1CCN(S(C)(=O)=O)CC1)c1ccc(Cl)c(Cl)c1 (stereo not drawn) [Example 3, N-(2-Chloro-benzyl)-2-(3,4-dichloro-phenyl)-4-(4-methanesulfonyl-piperazin-1-yl)-N-methyl-butyramide]
33.3	C[C@@H]1CN(CCC(C)(C(=O)NCc2ccc(C(F)(F)F)cc2)c2ccc(Cl)c(Cl)c2)CCN1S(C)(=O)=O (stereo partly drawn) [Example 45, 2-(3,4-Dichloro-phenyl)-4-((R)-4-methanesulfonyl-3-methyl-piperazin-1-yl)-2-methyl-N-(4-trifluoromethyl-benzyl)-butyramide]
98.4	CC(CCN1CCN(S(C)(=O)=O)CC1)(C(=O)NCc1ccc(Cl)cc1)c1ccc(Cl)c(Cl)c1 (stereo not drawn) [Example 29, N-(4-Chloro-benzyl)-2-(3,4-dichloro-phenyl)-4-(4-methanesulfonyl-piperazin-1-yl)-2-methyl-butyramide]
78.4	CN(Cc1cccc(C(F)(F)F)c1)C(=O)C(C)(CCN1CCN(S(C)(=O)=O)CC1)c1ccc(Cl)c(Cl)c1 (stereo not drawn) [Example 127, 2-(3,4-Dichloro-phenyl)-4-(4-methanesulfonyl-piperazin-1-yl)-2,N-dimethyl-N-(3-trifluoromethyl-benzyl)-butyramide]
146	CC(CCN1CCN(S(C)(=O)=O)CC1)(C(=O)NCc1ccc(OC(F)(F)F)cc1)c1ccc(Cl)c(Cl)c1 (stereo not drawn) [Example 17, 2-(3,4-Dichloro-phenyl)-4-(4-methanesulfonyl-piperazin-1-yl)-2-methyl-N-(4-trifluoromethoxy-benzyl)-butyramide]
